Literature values in patent publication US9820936B2, “Oral controlled release pharmaceutical compositions of Bepotastine” (LUPIN LIMITED, priority 2011, dated 2017).

Details: background statement

For `O=C(O)CCCN1CCC(O[C@@H](c2ccc(Cl)cc2)c2ccccn2)CC1` [Bepotastine, (+)-(S)-4-[4-[(4-Chlorophenyl)(2-pyridyl)methoxy]piperidino]butyric acid], the half life is listed as 2.4 ± 0.1 h.
